Assay results reported in patent publication US7855191B2, “Agent having a destructive effect on malignant tumors and method for the production thereof” (C.Y.L. Pharmazeutika GmbH, priority 2002, dated 2010).

How the values were obtained:
[1] = Compatibility of selenium compounds with alpha-ketoglutaric acid in the preparation; type: physicochemical; settings: for reaction / compatibility with alpha-ketoglutaric acid: on addition to the preparation of EP 326826 B1
Experimental: Thus initially the research was carried out by the addition of selenium in the form of selenite. […] Attempts were made to suppress this redox reaction by incorporating the selenium in organic compounds. As such a compound, finally seleno-methionine was selected. […] However, with the addition of this compound as a complement to the composition of European Patent 326826 B1 there is a danger that this substance will be incorporated into body proteins, and effect which might reduce the desired effect of the N-acetyl-seleno-L-methionine or cause the effect of that compound to be completely lost.

mammary carcinoma = settings: rats with 1-methyl-1-nitro urea induced mammary cancer; cited from earlier work
malignant brain tumors = settings: cited from earlier work

Row | SMILES | Maillard reaction with ketoglutaric acid ([1]; especially at the higher temperatures of heat sterilization) | reaction / compatibility with alpha-ketoglutaric acid [1] | density of the intra tumoral microvessels in the mammary carcinoma (mammary carcinoma) | general well-being of the patients (malignant brain tumors; manifested by erythrocyte number, hemoglobin value, thrombocyte count) | patients who felt a reduction in unpleasant side effects (malignant brain tumors; patients with malignant brain tumors) [%]
1 | C[Se]CC[C@H](N)C(=O)O [seleno-methionine] | undergoes a Maillard reaction with the ketoglutaric acid | does not react with the alphaketoglutaric acid |  |  | 
2 | O=[Se]([O-])[O-].[Na+].[Na+] [selenite, Na-selenite] |  | amorphous selenium precipitated out | significantly reduced | improvement in the general well-being | 76
